Data: the NIST ThermoML archive (doi:10.1021/je301123j)
± gives the expanded uncertainty stated by the source.

Columns and labels:
[1] = for surface tension liquid-gas: Ring tensiometer; for mass density / speed of sound / viscosity: 100 kPa, Liquid
[2] = xn = mol fraction of the nth substance listed; conditions: x2 = 0; for surface tension liquid-gas: Ring tensiometer; for mass density / speed of sound / viscosity: 100 kPa, Liquid

CCN1CCCC1=O [1-ethyl-2-pyrrolidinone]
[1]
Conditions	mass density [kg/m3]	speed of sound [m/s]	surface tension liquid-gas [mN/m]	viscosity [mPa·s]
293.15 K	997.91 ± 1.6	1513.2 ± 4.1	36.5 ± 0.8	2.132 ± 0.032
303.15 K	989.34 ± 1.6	1475 ± 4.1	35.2 ± 0.8	1.777 ± 0.027
313.15 K	980.76 ± 1.7	1437.6 ± 4.1	34.2 ± 0.8	1.515 ± 0.023
323.15 K	972.16 ± 1.8	1400.6 ± 4	–	1.31 ± 0.02

NCCO [2-aminoethan-1-ol]
[1]
Conditions	mass density [kg/m3]	speed of sound [m/s]	surface tension liquid-gas [mN/m]	viscosity [mPa·s]
293.15 K	1015.93 ± 1.1	1734.4 ± 4	49.7 ± 0.9	24.23 ± 0.24
303.15 K	1008.02 ± 1	1702.1 ± 4	47.8 ± 0.9	14.99 ± 0.15
313.15 K	1000.06 ± 0.95	1670.1 ± 3.9	47.1 ± 0.9	9.776 ± 0.1
323.15 K	992.05 ± 1	1637.2 ± 3.9	–	6.765 ± 0.076

NCCO [2-aminoethan-1-ol] + CCN1CCCC1=O
[2]
Conditions	mass density [kg/m3]	speed of sound [m/s]	surface tension liquid-gas [mN/m]	viscosity [mPa·s]
293.15 K	1015.93 ± 1.1	1734.4 ± 4	49.7 ± 0.9	24.23 ± 0.24
303.15 K	1008.02 ± 1	1702.1 ± 4	47.8 ± 0.9	14.99 ± 0.15
313.15 K	1000.06 ± 0.95	1670.1 ± 3.9	47.1 ± 0.9	9.776 ± 0.1
323.15 K	992.05 ± 1	1637.2 ± 3.9	–	6.765 ± 0.076

OCCNCCO [diethanolamine]
[1]
Conditions	mass density [kg/m3]	speed of sound [m/s]	surface tension liquid-gas [mN/m]	viscosity [mPa·s]
293.15 K	1096.45 ± 1.9	1739.2 ± 4	47.4 ± 0.9	892.04 ± 87
303.15 K	1090.02 ± 1.8	1711.3 ± 4	46.6 ± 0.9	394.2 ± 28
313.15 K	1083.51 ± 1.8	1685.9 ± 3.9	46 ± 0.9	191.32 ± 8.8
323.15 K	1077.05 ± 1.7	1661.1 ± 3.9	–	102.72 ± 2.6

OCCNCCO [diethanolamine] + CCN1CCCC1=O
[2]
Conditions	mass density [kg/m3]	speed of sound [m/s]	surface tension liquid-gas [mN/m]	viscosity [mPa·s]
293.15 K	1096.45 ± 1.9	1739.2 ± 4	47.4 ± 0.9	892.04 ± 87
303.15 K	1090.02 ± 1.8	1711.3 ± 4	46.6 ± 0.9	394.2 ± 28
313.15 K	1083.51 ± 1.8	1685.9 ± 3.9	46 ± 0.9	191.32 ± 8.8
323.15 K	1077.05 ± 1.7	1661.1 ± 3.9	–	102.72 ± 2.6

OCCN(CCO)CCO [triethanolamine]
[1]
Conditions	mass density [kg/m3]	speed of sound [m/s]	surface tension liquid-gas [mN/m]	viscosity [mPa·s]
293.15 K	1123.51 ± 2.1	1626.9 ± 3.9	46.3 ± 0.9	951.79 ± 95
303.15 K	1118 ± 2.1	1605.3 ± 3.8	45.6 ± 0.8	413.68 ± 30
313.15 K	1112.34 ± 2	1587.8 ± 3.8	44.8 ± 0.8	204.57 ± 9.8
323.15 K	1106.7 ± 2	1571.9 ± 3.8	–	111.34 ± 3.1

OCCN(CCO)CCO [triethanolamine] + CCN1CCCC1=O
[2]
Conditions	mass density [kg/m3]	speed of sound [m/s]	surface tension liquid-gas [mN/m]	viscosity [mPa·s]
293.15 K	1123.51 ± 2.1	1626.9 ± 3.9	46.3 ± 0.9	951.79 ± 95
303.15 K	1118 ± 2.1	1605.3 ± 3.8	45.6 ± 0.8	413.68 ± 30
313.15 K	1112.34 ± 2	1587.8 ± 3.8	44.8 ± 0.8	204.57 ± 9.8
323.15 K	1106.7 ± 2	1571.9 ± 3.8	–	111.34 ± 3.1
